In ChEMBL document CHEMBL4038298, “Ester- and amide-containing multiQACs: Exploring multicationic soft antimicrobial agents” (Bioorg Med Chem Lett, 2017):

How the values were obtained:
Enterococcus faecalis = test: Antibacterial activity against Enterococcus faecalis OG1RF incubated for 72 hrs; assay type: functional
Staphylococcus aureus [1] = test: Antibacterial activity against community acquired methicillin-resistant Staphylococcus aureus USA300-0114 incubated for 72 hrs; assay type: functional; conditions: USA300-0114, 72 h
Staphylococcus aureus [2] = test: Antibacterial activity against hospital-acquired methicillin-resistant Staphylococcus aureus ATCC 33592 incubated for 72 hrs; assay type: functional; conditions: ATCC 33592, 72 h
[3] = Stability of the compound in pure water by LCMS method; assay type: physicochemical
Pseudomonas aeruginosa = test: Antibacterial activity against Pseudomonas aeruginosa PAO1 incubated for 72 hrs; assay type: functional; conditions: PAO1, 72 h
Staphylococcus aureus [4] = test: Antibacterial activity against methicillin-susceptible Staphylococcus aureus SH1000 incubated for 72 hrs; assay type: functional; conditions: SH1000, 72 h
Escherichia coli = test: Antibacterial activity against Escherichia coli MC4100 incubated for 72 hrs; assay type: functional; conditions: str. K-12 substr. MC4100, 72 h

| Structure (SMILES) | MIC (Enterococcus faecalis) [µM] | MIC (Staphylococcus aureus [1]) [µM] | MIC (Staphylococcus aureus [2]) [µM] | Stability [3] | MIC (Pseudomonas aeruginosa) [µM] | MIC (Staphylococcus aureus [4]) [µM] | MIC (Escherichia coli) [µM] |
| --- | --- | --- | --- | --- | --- | --- | --- |
| CCCCCCCCOC(=O)C[N+](C)(C)CCC[N+](C)(CCC[N+](C)(C)CC(=O)OCCCCCCCC)CC(=O)OCCCCCCCC.[Br-].[Br-].[Br-] | 16 | 8 | 8 | Stable | 32 | 8 | 16 |
| CCCCCCCCCOC(=O)C[N+](C)(C)Cc1ccccc1.[Br-] | 125 | 32 | 63 | Stable | > 250 | 32 | 125 |
| CCCCCCCCCCOC(=O)C[N+](C)(C)Cc1ccccc1.[Br-] | 32 | 16 | 32 | Stable | > 250 | 32 | 63 |
| CCCCCCOC(=O)C[N+](C)(C)CC[N+](C)(C)CC(=O)OCCCCCC.[Br-].[Br-] | > 250 | 250 | > 250 | Stable | > 250 | > 250 | > 250 |
| CCCCCCCOC(=O)C[N+](C)(C)CC[N+](C)(C)CC(=O)OCCCCCCC.[Br-].[Br-] | > 250 | 125 | 250 | Stable | > 250 | 250 | > 250 |
| CCCCCCCCCCCCCCOC(=O)C[N+](C)(C)CC[N+](C)(C)CC(=O)OCCCCCCCCCCCCCC.[Br-].[Br-] | 32 | 16 | 32 | Stable | > 250 | 16 | 250 |
| CCCCCCCCCCOC(=O)C[N+](C)(C)CC[N+](C)(C)CC(=O)OCCCCCCCCCC.[Br-].[Br-] | 16 | 8 | 8 | Stable | 32 | 4 | 8 |
| CCCCCCOC(=O)C[N+](C)(C)CCC[N+](C)(CCC[N+](C)(C)CC(=O)OCCCCCC)CC(=O)OCCCCCC.[Br-].[Br-].[Br-] | 250 | 125 | 250 | Stable | > 250 | 250 | > 250 |
| CCCCCCCOC(=O)C[N+](C)(C)CCC[N+](C)(CCC[N+](C)(C)CC(=O)OCCCCCCC)CC(=O)OCCCCCCC.[Br-].[Br-].[Br-] | 32 | 16 | 32 | Stable | 125 | 32 | 125 |
| CCCCCCCOC(=O)C[N+](C)(C)CCN1CC[N+](C)(CC(=O)OCCCCCCC)CC1.[Br-].[Br-] | > 250 | 250 | > 250 | Stable | > 250 | > 250 | > 250 |
| CCCCCCCCCCCCCCOC(=O)C[N+](C)(C)CCN1CC[N+](C)(CC(=O)OCCCCCCCCCCCCCC)CC1.[Br-].[Br-] | > 250 | 250 | > 250 | Stable | > 250 | > 250 | > 250 |
| CCCCCCOC(=O)C[N+](C)(C)CCCN(CCC[N+](C)(C)CC(=O)OCCCCCC)CCC[N+](C)(C)CC(=O)OCCCCCC.[Br-].[Br-].[Br-] | 250 | 63 | 250 | Stable | > 250 | 63 | 250 |
| CCCCCCCCCCCCOC(=O)C[N+](C)(C)CCCN(CCC[N+](C)(C)CC(=O)OCCCCCCCCCCCC)CCC[N+](C)(C)CC(=O)OCCCCCCCCCCCC.[Br-].[Br-].[Br-] | 8 | 8 | 8 | Stable | > 250 | 4 | 8 |
| CCCCCCCCOC(=O)C[N+](C)(C)CCN1CC[N+](C)(CC(=O)OCCCCCCCC)CC1.[Br-].[Br-] | 63 | 32 | 63 | Stable | > 250 | > 250 | 250 |
| CCCCCCCCCOC(=O)C[N+](C)(C)CCCN(CCC[N+](C)(C)CC(=O)OCCCCCCCCC)CCC[N+](C)(C)CC(=O)OCCCCCCCCC.[Br-].[Br-].[Br-] | 8 | 4 | 4 | Stable | 16 | 2 | 4 |
| CCCCCCCCCCCCOC(=O)C[N+](C)(C)CCC[N+](C)(CCC[N+](C)(C)CC(=O)OCCCCCCCCCCCC)CC(=O)OCCCCCCCCCCCC.[Br-].[Br-].[Br-] | 8 | 8 | 8 | Stable | 16 | 4 | 8 |
| CCCCCCCCCCNC(=O)C[N+](C)(C)CC[N+](C)(C)CC(=O)NCCCCCCCCCC.[Br-].[Br-] | 1 | 0.5 | 1 | Stable | 2 | 1 | 1 |
